{"source": "patent US20130197073A1", "about": "“HYPOCHOLESTEROLEMIC, ANTI-INFLAMMATORY AND ANTIEPILEPTIC NEUROPROTECTIVE COMPOUND” (NEURON BIOPHARMA, S.A., priority 2010, published 2013)", "key": {"[1]": {"conditions": "PAMPA, 18 h, 100 μM, pH 7.4", "excerpt": "To that end, the BBB was mimicked in an in vitro system that allowed evaluating the compound without using cells, and where the so-called PAMPA (Parallel Artificial Membrane Permeation Assay) was used, using a sandwich system considering the crossing of compounds by means of passive diffusion.\nA mixture of marketed lipids derived from pig brain with a phospholipid composition very similar to that which forms the barrier and known as PBL (Porcine Polar Brain Lipid) was used to mimic the blood-brain barrier. This compound was stored at −20° C. dissolved in dodecane at 100 μg/ml in glass vials.\nTo that end, a 1/100 dilution of the compounds was performed, being the DMSO content in all cases 1%.\nFive microliters of PBL at 20 μg/ml prepared from the frozen stock at 100 μg/mL were added in a 96-well filter plate, with a PVDF membrane and a pore size of 45 μm (MAIPN4550, Millipore). After 2 minutes, 300 μl of the phosphate buffer used to dilute the compounds were added. […] After that time, 100 μl from the wells of the donor plates and acceptor plates were transferred to a special 96-well plate for UV reading. […] The percentage of barrier crossing as well as the effective permeability (Pe) were calculated from the spectrophotometric data. […]\n[Drug]acceptor=Absorbance of the acceptor well\n[Drug]equilibrium=Absorbance of the mean of the basal wells/2 […]"}, "[2]": {"tested_on": "human neuroblastoma SK-N-MC cells", "assay": "Inhibition of DNA fragmentation (sub-G1, flow cytometry) in camptothecin cell model of apoptosis", "assay_type": "cell-based", "conditions": "pretreatment 24 hours at 10 μM; 50 μM CPT 6 hours", "method": "The assay was performed on human neuroblastoma SK-N-MC cells in culture, maintained as described in section 2.1.\nThe inhibition caused by compound NST0060 with respect to apoptosis caused by treatment with camptothecin (CPT), which inhibits the topoisomerase I enzyme, prevents DNA duplication and triggers apoptotic cell death. These cells, not exceeding 15 passages, were seeded on 6-well plates treated for adherent cells with a cell concentration of 7×10^5 cells/well; 2 wells of the plate were seeded for each assay condition.\nAfter 24 hours of cell incubation (at 37° C. and 5% CO2), cell pretreatment was performed with 10 and 40 μM of NST0060 for 24 hours; they were subsequently treated with 50 μM CPT for 6 hours. Furthermore, Z-VAD-fmk at 50 μM was used as positive control for inhibition.\nAfter treatment, the cells were collected along with their culture medium and centrifuged at 300×g for 5 minutes. The medium was removed, a washing was performed with PBS and the cells were fixed for 2 minutes with 500 μl of 70% ethanol at −20° C. […] After this time they were analyzed by flow cytometry, comparing the fluorescence of propidium iodide with respect to the amount of DNA. The percentage of apoptosis was measured on the sub-G1 region of each of the conditions."}, "[3]": {"tested_on": "IL-1β", "assay": "LPS model of systemic shock in mice, plasma IL-1β", "assay_type": "in vivo", "conditions": "two i.p. doses of 50 mg/kg; 2 hours post-LPS", "method": "(§1) To that end an additional assay was carried out in which all the animals included were 12-week old male C57BL6 mice. The experiments were carried out strictly complying with the standard entitled Guidance on the Operation of Animals (Scientific Procedures, Act. 1986). The animals were subjected to their respective quarantine period and were treated with maximum precaution to minimize possible contaminations during treatments and handling.\n(§2) The mice were split up into three experimental groups: control group (n=8); control+LPS group (n=16); NST0060+LPS group (n=16). The mice were i.p. administered two doses of 50 mg/kg of NST0060 (in its lactone form) spaced out 12 hours from one another. 0.5% methyl cellulose in physiological saline, which was administered to the mice in the control groups with the same administration regimen, was used as a vehicle. Peripheral systemic inflammation was induced one hour after the last treatment by means of a single i.p. injection of LPS at 8 mg/kg. Half the mice in which systemic shock was induced (8 animals from the control+LPS group and 8 animals from the NST0060+LPS group) were sacrificed 2 hours after the inoculation of the LPS. Blood was taken and plasma was obtained, and both were frozen. […] The concentration of the inflammatory cytokines TNFα and IL-1β was evaluated in the plasma obtained by means of ELISA."}, "[4]": {"tested_on": "human neuroblastoma SK-N-MC cells", "assay": "Protection against neuronal death induced by oxidative stress (xanthine/xanthine oxidase), WST-1", "assay_type": "cell-based", "conditions": "NST0060 at 10 μM; 10 μM xanthine/60 mU/mL xanthine oxidase, 22 hours; protection significant from 1 to 40 μM", "method": "The assay was performed on human neuroblastoma SK-N-MC cells in culture from the American Type Culture Collection (ATCC), in all cases strict rules of sterility were followed and the manipulation was performed in class II biological safety cabinets following European standard EN 12469. The cells were maintained in the following culture medium: Minimum Essential Medium Eagle (MEM) supplemented with 1 mM sodium pyruvate, 2 mM L-glutamine, 0.1 mM non-essential amino acids, 0.05 mg/ml gentamicin and 10% fetal bovine serum.\nThe inhibition caused by compound NST0060 with respect to cell death caused by treatment with xanthine/xanthine oxidase which generates oxidative damage (produces free radicals such as hydrogen peroxide, superoxide anion, hydroxyl radical), which triggers cell death, was analyzed. These cells, not exceeding 15 passages, were seeded on 96-well plates treated for adherent cells with a cell concentration of 5×10^4 cells/well; 3 wells of the plate were seeded for each assay condition. […]\nThe cells were incubated (at 37° C. and 5% CO2) with these treatments for 22 hours, after which time WST-1 reagent (Roche) was added. […] The formazan which is formed can be detected colorimetrically since it has an absorbance of 440 nm. The reading was taken in a plate reader at 440 nm 2 hours after adding the reagent."}, "[5]": {"tested_on": "TNFα", "assay": "LPS model of systemic shock in mice, plasma TNFα at 2 and 4 hours", "assay_type": "in vivo", "conditions": "two i.p. doses of 50 mg/kg; 2 and 4 hours post-LPS", "method": "as §1, §2"}}}
{"smiles": "CCCC(CCC)C(=O)O[C@H]1C[C@@H](C)C=C2C=C[C@H](C)[C@H](CC[C@@H]3C[C@@H](O)CC(=O)O3)[C@H]21", "note": "[NST0060, 2-propylpentanoic acid (1S,3R,7S,8S,8aR)-1,2,3,7,8,8a-hexahydro-3,7-dimethyl-8-[2-[(2R,4R)-tetrahydro-4-hydroxy-6-oxo-2H-pyran-2-yl]ethyl]-1-naphthalenyl ester]", "values": [{"measurement": "% BBB crossing", "setting": "[1]", "result": "29.8 ± 2.4", "unit": "%"}, {"measurement": "maximum protection against apoptosis (DNA fragmentation) caused by CPT", "setting": "[2]", "result": 41, "unit": "%"}, {"measurement": "cytokine IL-1β plasma levels", "setting": "[3]", "result": "statistically significant decrease in cytokine IL-18 plasma levels"}, {"measurement": "maximum protection against cell death caused by XXO", "setting": "[4]", "result": 80, "unit": "%"}, {"measurement": "plasma concentration of TNFα (inflammatory response)", "setting": "[5]", "result": "decrease in the inflammatory response at both 2 and 4 hours post-LPS"}]}
